Article PMC9506414, “Novel 2,6,9-Trisubstituted Purines as Potent CDK Inhibitors Alleviating Trastuzumab-Resistance of HER2-Positive Breast Cancers” (Pharmaceuticals, 2022)

Legend:
Test in all cases: Kinome-wide inhibition profiling
Assay type in all cases: biochemical
[1] = target: T1, SIK (Homo sapiens, UniProt P57059)
T1 construct: purchased Reaction Biology Corp
Method: (§1) In vitro CDK12/cyclinK assays for all compounds and in vitro kinome-wide inhibition profiling of 30d at 10 μM were performed by a CRO company (Reaction Biology Corp., San Diego, CA, USA).

[2] = target: T2, WNK3 (Homo sapiens, UniProt Q9BYP7)
T2 construct: purchased Reaction Biology Corp
Method: as §1

[3] = target: T3, PLK4 (Homo sapiens, UniProt O00444)
T3 construct: purchased Reaction Biology Corp
Method: as §1

[4] = target: T4, SNARK (Homo sapiens, UniProt Q9H093)
T4 construct: purchased Reaction Biology Corp
Method: as §1

[5] = target: T5, FLT1 (Homo sapiens, UniProt P17948)
T5 construct: purchased Reaction Biology Corp
Method: as §1

[6] = target: T6, PFTK1 (Homo sapiens, UniProt O94921)
T6 construct: purchased Reaction Biology Corp
Method: as §1

[7] = target: T7, PAK2 (Homo sapiens, UniProt Q13177)
T7 construct: purchased Reaction Biology Corp
Method: as §1

[8] = target: T8, MAP3K3 (Homo sapiens, UniProt Q99759)
T8 construct: purchased Reaction Biology Corp
Method: as §1

[9] = target: T9, ZAP70 (Homo sapiens, UniProt P43403)
T9 construct: purchased Reaction Biology Corp
Method: as §1

[10] = target: T10, ABL1 (Homo sapiens, UniProt P00519)
T10 construct: purchased Reaction Biology Corp
Method: as §1

[11] = target: T11, CAMK4 (Homo sapiens, UniProt Q16566)
T11 construct: purchased Reaction Biology Corp
Method: as §1

[12] = target: T12, PHKg1 (Homo sapiens, UniProt Q16816)
T12 construct: purchased Reaction Biology Corp
Method: as §1

[13] = target: T13, RIPK2 (Homo sapiens, UniProt O43353)
T13 construct: purchased Reaction Biology Corp
Method: as §1

[14] = target: T14, DAPK3 (Homo sapiens, UniProt O43293)
T14 construct: purchased Reaction Biology Corp
Method: as §1

[15] = target: T15, MKK6 (Homo sapiens, UniProt P52564)
T15 construct: purchased Reaction Biology Corp
Method: as §1

[16] = target: T16, STK39 (Homo sapiens, UniProt Q9UEW8)
T16 construct: purchased Reaction Biology Corp
Method: as §1

[17] = target: T17, Haspin (Homo sapiens, UniProt Q8TF76)
T17 construct: purchased Reaction Biology Corp
Method: as §1

[18] = target: T18, PIM3 (Homo sapiens, UniProt Q86V86)
T18 construct: purchased Reaction Biology Corp
Method: as §1

[19] = target: T19, PIM1 (Homo sapiens, UniProt P11309)
T19 construct: purchased Reaction Biology Corp
Method: as §1

[20] = target: T20, ERK2 (Homo sapiens, UniProt P28482)
T20 construct: purchased Reaction Biology Corp
Method: as §1

[21] = target: T21, GRK2 (Homo sapiens, UniProt P25098)
T21 construct: purchased Reaction Biology Corp
Method: as §1

[22] = target: T22, PAK3 (Homo sapiens, UniProt O75914)
T22 construct: purchased Reaction Biology Corp
Method: as §1

[23] = target: T23, LYN (Homo sapiens, UniProt P07948)
T23 construct: purchased Reaction Biology Corp
Method: as §1

[24] = target: T24, MAP4K5 (Homo sapiens, UniProt Q9Y4K4)
T24 construct: purchased Reaction Biology Corp
Method: as §1

[25] = target: T25, MARK3 (Homo sapiens, UniProt P27448)
T25 construct: purchased Reaction Biology Corp
Method: as §1

[26] = target: T26, CAMKK2 (Homo sapiens, UniProt Q96RR4)
T26 construct: purchased Reaction Biology Corp
Method: as §1

[27] = target: T27, AurkC (Homo sapiens, UniProt Q9UQB9)
T27 construct: purchased Reaction Biology Corp
Method: as §1

[28] = target: T28, NEK1 (Homo sapiens, UniProt Q96PY6)
T28 construct: purchased Reaction Biology Corp
Method: as §1

[29] = target: T29, RIPK5 (Homo sapiens, UniProt Q6XUX3)
T29 construct: purchased Reaction Biology Corp
Method: as §1

[30] = target: T30, EPHB4 (Homo sapiens, UniProt P54760)
T30 construct: purchased Reaction Biology Corp
Method: as §1

[31] = target: T31, WNK1 (Homo sapiens, UniProt Q9H4A3)
T31 construct: purchased Reaction Biology Corp
Method: as §1

[32] = target: T32, PIM2 (Homo sapiens, UniProt Q9P1W9)
T32 construct: purchased Reaction Biology Corp
Method: as §1

[33] = target: T33, TSSK6 (Homo sapiens, UniProt Q9BXA6)
T33 construct: purchased Reaction Biology Corp
Method: as §1

[34] = target: T34, PRKG1 (Homo sapiens, UniProt Q13976)
T34 construct: purchased Reaction Biology Corp
Method: as §1

[35] = target: T35, AXL (Homo sapiens, UniProt P30530)
T35 construct: purchased Reaction Biology Corp
Method: as §1

[36] = target: T36, JNK1 (Homo sapiens, UniProt P45983)
T36 construct: purchased Reaction Biology Corp
Method: as §1

[37] = target: T37, TAOK3 (Homo sapiens, UniProt Q9H2K8)
T37 construct: purchased Reaction Biology Corp
Method: as §1

[38] = target: T38, PRKCQ (Homo sapiens, UniProt Q04759)
T38 construct: purchased Reaction Biology Corp
Method: as §1

[39] = target: T39, MARK2 (Homo sapiens, UniProt Q7KZI7)
T39 construct: purchased Reaction Biology Corp
Method: as §1

[40] = target: T40, DCAMKL1 (Homo sapiens, UniProt O15075)
T40 construct: purchased Reaction Biology Corp
Method: as §1

[41] = target: T41, NEK6 (Homo sapiens, UniProt Q9HC98)
T41 construct: purchased Reaction Biology Corp
Method: as §1

[42] = target: T42, TXK (Homo sapiens, UniProt P42681)
T42 construct: purchased Reaction Biology Corp
Method: as §1

[43] = target: T43, SGK2 (Homo sapiens, UniProt Q9HBY8)
T43 construct: purchased Reaction Biology Corp
Method: as §1

[44] = target: T44, CLK1 (Homo sapiens, UniProt P49759)
T44 construct: purchased Reaction Biology Corp
Method: as §1

T42 sequence (P42681 whole entry): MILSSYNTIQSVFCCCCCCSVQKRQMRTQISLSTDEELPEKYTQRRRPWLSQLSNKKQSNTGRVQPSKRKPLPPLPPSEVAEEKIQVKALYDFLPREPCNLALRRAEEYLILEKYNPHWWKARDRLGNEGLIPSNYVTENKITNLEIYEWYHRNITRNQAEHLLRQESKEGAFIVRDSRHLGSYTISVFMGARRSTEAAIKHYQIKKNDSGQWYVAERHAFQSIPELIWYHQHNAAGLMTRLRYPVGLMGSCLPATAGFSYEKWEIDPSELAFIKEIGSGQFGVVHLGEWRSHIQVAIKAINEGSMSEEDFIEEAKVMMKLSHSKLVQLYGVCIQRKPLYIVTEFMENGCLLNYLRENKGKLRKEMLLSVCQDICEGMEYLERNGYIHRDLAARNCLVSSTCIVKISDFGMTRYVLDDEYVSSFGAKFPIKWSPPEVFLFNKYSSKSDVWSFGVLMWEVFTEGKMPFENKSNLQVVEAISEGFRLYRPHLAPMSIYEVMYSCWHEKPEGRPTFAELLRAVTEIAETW
T12 sequence (Q16816 whole entry): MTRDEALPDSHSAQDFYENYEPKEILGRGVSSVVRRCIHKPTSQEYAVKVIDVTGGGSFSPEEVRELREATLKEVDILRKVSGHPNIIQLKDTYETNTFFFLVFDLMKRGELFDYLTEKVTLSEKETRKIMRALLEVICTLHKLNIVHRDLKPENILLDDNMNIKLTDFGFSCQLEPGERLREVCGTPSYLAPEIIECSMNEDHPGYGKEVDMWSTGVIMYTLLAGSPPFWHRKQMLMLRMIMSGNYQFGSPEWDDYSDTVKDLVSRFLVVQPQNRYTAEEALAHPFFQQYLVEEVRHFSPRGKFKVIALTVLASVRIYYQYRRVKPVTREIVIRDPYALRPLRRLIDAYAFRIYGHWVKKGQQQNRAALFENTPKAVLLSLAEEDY
T37 sequence (Q9H2K8 whole entry): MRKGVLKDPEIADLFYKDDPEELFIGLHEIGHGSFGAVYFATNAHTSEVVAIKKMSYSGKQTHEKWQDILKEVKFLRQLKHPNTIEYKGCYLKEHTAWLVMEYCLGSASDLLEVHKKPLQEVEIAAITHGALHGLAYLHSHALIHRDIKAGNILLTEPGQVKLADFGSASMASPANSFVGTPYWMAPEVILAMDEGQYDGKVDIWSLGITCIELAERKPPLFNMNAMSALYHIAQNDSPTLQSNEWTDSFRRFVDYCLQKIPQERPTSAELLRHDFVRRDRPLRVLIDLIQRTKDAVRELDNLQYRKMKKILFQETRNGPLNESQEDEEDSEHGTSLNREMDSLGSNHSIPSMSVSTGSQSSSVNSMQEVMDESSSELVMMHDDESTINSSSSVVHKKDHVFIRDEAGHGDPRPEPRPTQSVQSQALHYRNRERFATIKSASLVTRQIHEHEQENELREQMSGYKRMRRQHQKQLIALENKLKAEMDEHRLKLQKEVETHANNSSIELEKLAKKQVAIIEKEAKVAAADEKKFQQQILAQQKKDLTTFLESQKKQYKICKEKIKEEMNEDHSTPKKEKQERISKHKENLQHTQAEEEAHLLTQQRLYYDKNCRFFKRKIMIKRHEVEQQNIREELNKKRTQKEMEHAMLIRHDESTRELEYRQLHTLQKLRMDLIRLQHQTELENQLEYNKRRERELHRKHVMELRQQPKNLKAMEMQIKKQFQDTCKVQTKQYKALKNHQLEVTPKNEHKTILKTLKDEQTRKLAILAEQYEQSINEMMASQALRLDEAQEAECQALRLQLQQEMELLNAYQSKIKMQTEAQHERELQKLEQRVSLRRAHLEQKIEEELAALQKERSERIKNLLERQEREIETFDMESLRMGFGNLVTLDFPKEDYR
T21 sequence (P25098 whole entry): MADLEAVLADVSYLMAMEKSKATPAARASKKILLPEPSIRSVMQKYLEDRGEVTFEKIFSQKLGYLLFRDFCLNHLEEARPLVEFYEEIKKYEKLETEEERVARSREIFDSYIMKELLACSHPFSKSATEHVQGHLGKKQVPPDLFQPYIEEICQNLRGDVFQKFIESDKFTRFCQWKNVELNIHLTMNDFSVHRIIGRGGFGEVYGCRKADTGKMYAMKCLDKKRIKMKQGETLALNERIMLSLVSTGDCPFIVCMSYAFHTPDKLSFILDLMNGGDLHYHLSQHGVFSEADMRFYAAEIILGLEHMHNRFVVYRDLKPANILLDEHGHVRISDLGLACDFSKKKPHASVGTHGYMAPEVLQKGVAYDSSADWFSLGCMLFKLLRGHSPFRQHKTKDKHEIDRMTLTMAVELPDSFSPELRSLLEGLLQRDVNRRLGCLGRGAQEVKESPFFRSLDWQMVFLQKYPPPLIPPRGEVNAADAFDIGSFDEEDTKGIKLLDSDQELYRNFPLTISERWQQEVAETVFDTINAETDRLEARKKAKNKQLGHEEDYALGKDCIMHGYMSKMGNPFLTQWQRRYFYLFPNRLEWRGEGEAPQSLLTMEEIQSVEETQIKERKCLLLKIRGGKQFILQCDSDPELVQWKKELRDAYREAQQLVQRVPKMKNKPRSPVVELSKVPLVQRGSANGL
T13 sequence (O43353 whole entry): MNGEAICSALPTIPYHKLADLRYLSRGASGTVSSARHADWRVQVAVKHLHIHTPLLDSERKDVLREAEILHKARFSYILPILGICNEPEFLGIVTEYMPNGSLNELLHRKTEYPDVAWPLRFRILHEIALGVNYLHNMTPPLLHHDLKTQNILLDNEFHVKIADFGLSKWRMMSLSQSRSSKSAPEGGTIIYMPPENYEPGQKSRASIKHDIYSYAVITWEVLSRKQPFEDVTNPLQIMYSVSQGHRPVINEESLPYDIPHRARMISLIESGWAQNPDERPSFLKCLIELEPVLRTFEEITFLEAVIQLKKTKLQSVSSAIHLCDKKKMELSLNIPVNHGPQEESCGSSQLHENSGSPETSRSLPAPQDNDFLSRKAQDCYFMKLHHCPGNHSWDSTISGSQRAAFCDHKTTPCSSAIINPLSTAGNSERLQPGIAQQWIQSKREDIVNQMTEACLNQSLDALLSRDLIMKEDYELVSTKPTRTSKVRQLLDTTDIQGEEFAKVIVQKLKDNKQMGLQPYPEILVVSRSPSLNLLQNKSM
T4 sequence (Q9H093 whole entry): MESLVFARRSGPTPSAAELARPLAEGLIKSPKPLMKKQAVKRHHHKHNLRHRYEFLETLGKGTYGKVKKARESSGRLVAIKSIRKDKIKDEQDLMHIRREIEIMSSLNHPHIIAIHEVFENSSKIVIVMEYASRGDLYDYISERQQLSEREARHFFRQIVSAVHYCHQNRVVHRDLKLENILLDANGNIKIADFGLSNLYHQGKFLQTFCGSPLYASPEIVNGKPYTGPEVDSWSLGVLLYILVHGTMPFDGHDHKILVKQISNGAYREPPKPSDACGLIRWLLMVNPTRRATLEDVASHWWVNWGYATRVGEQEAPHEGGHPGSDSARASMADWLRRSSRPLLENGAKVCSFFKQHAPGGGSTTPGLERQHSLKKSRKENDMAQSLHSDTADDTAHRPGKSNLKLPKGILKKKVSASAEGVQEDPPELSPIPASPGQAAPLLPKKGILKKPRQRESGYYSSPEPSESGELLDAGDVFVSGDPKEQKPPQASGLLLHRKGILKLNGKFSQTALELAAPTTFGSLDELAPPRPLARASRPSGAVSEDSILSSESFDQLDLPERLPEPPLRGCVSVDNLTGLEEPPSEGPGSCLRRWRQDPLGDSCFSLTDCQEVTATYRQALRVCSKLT
T33 sequence (Q9BXA6 whole entry): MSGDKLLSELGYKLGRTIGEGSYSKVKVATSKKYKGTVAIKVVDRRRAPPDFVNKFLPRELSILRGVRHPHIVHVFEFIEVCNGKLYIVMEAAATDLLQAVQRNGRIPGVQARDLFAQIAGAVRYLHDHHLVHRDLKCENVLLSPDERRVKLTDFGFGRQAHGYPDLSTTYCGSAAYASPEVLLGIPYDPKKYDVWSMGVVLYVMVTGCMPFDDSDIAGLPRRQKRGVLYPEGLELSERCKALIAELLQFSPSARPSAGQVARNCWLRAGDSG
T7 sequence (Q13177 whole entry): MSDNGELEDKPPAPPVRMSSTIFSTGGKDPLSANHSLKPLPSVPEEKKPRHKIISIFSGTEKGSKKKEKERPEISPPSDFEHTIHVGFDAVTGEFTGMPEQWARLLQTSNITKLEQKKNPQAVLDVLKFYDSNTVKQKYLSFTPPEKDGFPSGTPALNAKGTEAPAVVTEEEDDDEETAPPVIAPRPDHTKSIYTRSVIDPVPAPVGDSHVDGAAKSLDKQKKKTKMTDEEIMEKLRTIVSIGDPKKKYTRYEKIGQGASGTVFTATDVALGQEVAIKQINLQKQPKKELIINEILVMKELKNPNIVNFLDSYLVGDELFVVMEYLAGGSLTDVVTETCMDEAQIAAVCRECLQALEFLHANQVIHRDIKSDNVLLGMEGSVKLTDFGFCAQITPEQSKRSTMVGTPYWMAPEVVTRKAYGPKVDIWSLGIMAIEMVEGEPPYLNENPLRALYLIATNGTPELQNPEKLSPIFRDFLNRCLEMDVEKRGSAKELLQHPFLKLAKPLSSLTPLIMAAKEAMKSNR
T20 sequence (P28482 whole entry): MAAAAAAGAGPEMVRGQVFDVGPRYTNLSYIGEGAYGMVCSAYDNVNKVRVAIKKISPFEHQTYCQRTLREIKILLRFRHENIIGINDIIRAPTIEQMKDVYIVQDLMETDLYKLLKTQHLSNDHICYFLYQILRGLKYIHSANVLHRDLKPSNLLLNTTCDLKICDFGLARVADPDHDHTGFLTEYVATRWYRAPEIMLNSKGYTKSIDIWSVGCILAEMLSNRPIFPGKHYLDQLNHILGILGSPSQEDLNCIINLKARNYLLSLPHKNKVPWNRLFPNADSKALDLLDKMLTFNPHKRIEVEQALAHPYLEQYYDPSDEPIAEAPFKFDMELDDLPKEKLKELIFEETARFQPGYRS

Work on `CCn1cnc2c(NCc3ccc(-c4ccccn4)nc3)nc(-c3ccc(N)nc3)nc21` [Compound 30d, N-([2,2′-Bipyridin]-5-ylmethyl)-2-(6-aminopyridin-3-yl)-9-ethyl-9H-purin-6-amine] yielded a remaining activity at 10 µM [1] of 56.3%, a remaining activity at 10 µM [2] of 74.5% and a remaining activity at 10 µM [3] of 83.4%. The remaining activity at 10 µM [4] was 59%, the remaining activity at 10 µM [5] was 36.3% and the remaining activity at 10 µM [6] was 14%. It also gave a remaining activity at 10 µM [7] of 46.7%, a remaining activity at 10 µM [8] of 94% and a remaining activity at 10 µM [9] of 100%. It also gave a remaining activity at 10 µM [10] of 61.2%, a remaining activity at 10 µM [11] of 95.2% and a remaining activity at 10 µM [12] of 16.5%. The remaining activity at 10 µM [13] was 66.1%, the remaining activity at 10 µM [14] was 80.8% and the remaining activity at 10 µM [15] was 95.4%. It also gave a remaining activity at 10 µM [16] of 29.6%, a remaining activity at 10 µM [17] of 79.4% and a remaining activity at 10 µM [18] of 86.7%. For the same compound, the remaining activity at 10 µM [19] was 97.8%, the remaining activity at 10 µM [20] was 10.6% and the remaining activity at 10 µM [21] was 99.1%. The remaining activity at 10 µM [22] was 29.1%, the remaining activity at 10 µM [23] was 65.7% and the remaining activity at 10 µM [24] was 88.3%. For the same compound, the remaining activity at 10 µM [25] was 83.1%, the remaining activity at 10 µM [26] was 10.6% and the remaining activity at 10 µM [27] was 25.5%. For the same compound, the remaining activity at 10 µM [28] was 92.3%, the remaining activity at 10 µM [29] was 67.8% and the remaining activity at 10 µM [30] was 23.2%. The remaining activity at 10 µM [31] was 82.5%, the remaining activity at 10 µM [32] was 93.8% and the remaining activity at 10 µM [33] was 86.9%. It also gave a remaining activity at 10 µM [34] of 108%, a remaining activity at 10 µM [35] of 44.2% and a remaining activity at 10 µM [36] of 41.6%. For the same compound, the remaining activity at 10 µM [37] was 23.1%, the remaining activity at 10 µM [38] was 79.8% and the remaining activity at 10 µM [39] was 74.3%. It also gave a remaining activity at 10 µM [40] of 72.6%, a remaining activity at 10 µM [41] of 92.1% and a remaining activity at 10 µM [42] of 34.9%. The remaining activity at 10 µM [43] was 84.7% and the remaining activity at 10 µM [44] was 13.7%.
